Laboratory results reported in US12428406B2 (PMV Pharmaceuticals, Inc., priority 2019, dated 2025).

Target: T1, p53 Y220C (Homo sapiens, UniProt P04637, Y220C)
T1 construct: The recombinant protein was a truncation mutant containing only amino acids 94-312 of p53; made in house; host or cells: E. coli
Experiment: In vitro DNA binding activity assay (HTRF / TR-FRET): stabilization of p53 Y220C and increase of its DNA binding activity
Format: biochemical
Details: recombinant His-tagged p53 Y220C DNA binding domain (aa 94-312), biotin-labeled consensus DNA, incubated at 27° C. or 29° C. for 60 min
In short: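 Stabilization of the mutant is inferred from increased binding of His-tagged p53 Y220C to a biotin-labeled consensus DNA, detected by HTRF with europium-streptavidin and APC-anti-His antibody. The concentration giving a 50% rise over compound-free binding is reported as SC150.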

T1 sequence (P04637 94-312, change not shown): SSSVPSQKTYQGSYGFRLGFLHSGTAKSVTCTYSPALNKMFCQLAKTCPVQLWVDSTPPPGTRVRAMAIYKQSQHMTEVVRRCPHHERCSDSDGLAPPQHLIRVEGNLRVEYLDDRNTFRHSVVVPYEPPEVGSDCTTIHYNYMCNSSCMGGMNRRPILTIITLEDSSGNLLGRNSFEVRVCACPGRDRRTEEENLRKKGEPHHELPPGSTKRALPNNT

SMILES	SC150 (concentration of the compound required to increase the DNA binding activity by 50%)
CCN1CC[C@@H](Nc2cccc3c2cc(C#CCNc2ccc(C(N)=O)cc2OC)n3CC(F)(F)F)[C@@H](F)C1 [Compound 1063A, 4-{[3-(4-{[(3S,4R)-1-ethyl-3-fluoropiperidin-4-yl]amino}-1-(2,2,2-trifluoroethyl)-1H-indol-2-yl)prop-2-yn-1-yl]amino}-3-methoxybenzamide]	+ (+ = 0 μM ≤ SC150 < 0.05 μM)
COc1cc(C(=O)N2CC3(COC3)C2)ccc1NCC#Cc1cc2c(NC3CCN(C)CC3)cccc2n1CC(F)(F)F [Compound 502A, 2-{3-[(2-methoxy-4-{2-oxa-6-azaspiro[3.3]heptane-6-carbonyl}phenyl)amino]prop-1-yn-1-yl}-N-(1-methylpiperidin-4-yl)-1-(2,2,2-trifluoroethyl)-1H-indol-4-amine]	+ (+ = 0 μM ≤ SC150 < 0.05 μM)
COc1cc(S(C)(=O)=O)ccc1NCC#Cc1cc2c(N[C@H]3CC[C@H](N4CC5(CCOCC5)C4)CC3)cccc2n1CC(F)(F)F [Compound 294A, 2-{3-[(4-methane-sulfonyl-2-methoxy-phenyl)amino]prop-1-yn-1-yl}-N-[(1R,4R)-4-{7-oxa-2-azaspiro[3.5]nonan-2-yl}cyclo-hexyl]-1-(2,2,2-trifluoro-ethyl)-1H-indol-4-amine]	+ (+ = 0 μM ≤ SC150 < 0.05 μM)
CCC(=O)OC(COC)CN1CCC(Nc2cccc3c2cc(C#CCNc2ccc(S(C)(=O)=O)cc2OC)n3CC(F)(F)F)CC1 (stereo not shown) [Compound 602A, 1-{4-[(2-{3-[(4-methanesulfonyl-2-methoxyphenyl)amino]prop-1-yn-1-yl}-1-(2,2,2-trifluoroethyl)-1H-indol-4-yl)amino]piperidin-1-yl}-3-methoxypropan-2-yl propanoate]	+ (+ = 0 μM ≤ SC150 < 0.05 μM)
COCCN(C)S(=O)(=O)c1ccc(NCC#Cc2cc3c(NC4CCN(C)CC4)cccc3n2CC(F)(F)F)c(OC)c1 [Compound 477A, 3-methoxy-N-(2-methoxyethyl)-N-methyl-4-[(3-{4-[(1-methylpiperidin-4-yl)amino]-1-(2,2,2-trifluoroethyl)-1H-indol-2-yl}prop-2-yn-1-yl)amino]benzene-1-sulfonamide]	+ (+ = 0 μM ≤ SC150 < 0.05 μM)
CS(=O)(=O)c1ccc(NCC#Cc2cc3c(NC4CCS(=O)(=O)CC4)cccc3n2CC(F)(F)F)c(OC(F)(F)F)c1 [Compound 1035A, 4-{[2-(3-{[4-methanesulfonyl-2-(trifluoromethoxy)phenyl]amino}prop-1-yn-1-yl)-1-(2,2,2-trifluoroethyl)-1H-indol-4-yl]amino}-1λ^6-thiane-1,1-dione]	+ (+ = 0 μM ≤ SC150 < 0.05 μM)
COc1cc(S(C)(=O)=O)ccc1NCC#Cc1cc2c(N[C@H]3CC[C@H](N4CCC(OC)C4)CC3)cccc2n1CC(F)(F)F (stereo partly drawn) [Compound 426A, 2-{3-[(4-methane-sulfonyl-2-methoxy-phenyl)amino]prop-1-yn-1-yl}-N-[(1R,4R)-4-(3-methoxypyrrolidin-1-yl)cyclohexyl]-1-(2,2,2-trifluoroethyl)-1H-indol-4-amine]	+ (+ = 0 μM ≤ SC150 < 0.05 μM)
COc1cc(C(=O)O)ccc1NCC#Cc1cc2c(NC3CCN(CCCS(C)(=O)=O)CC3)cccc2n1CC(F)(F)F [Compound 707A, 4-{[3-(4-{[1-(3-methanesulfonylpropyl)piperidin-4-yl]amino}-1-(2,2,2-trifluoroethyl)-1H-indol-2-yl)prop-2-yn-1-yl]amino}-3-methoxybenzoic acid]	+ (+ = 0 μM ≤ SC150 < 0.05 μM)
COc1cc(C(=O)N[C@H](C)CO)ccc1NCC#Cc1cc2c(N[C@@H]3CCN(C)C[C@@H]3F)cccc2n1CC(F)(F)F [Compound 950A, 4-{[3-(4-{[(3S,4R)-3-fluoro-1-methylpiperidin-4-yl]amino}-1-(2,2,2-trifluoroethyl)-1H-indol-2-yl)prop-2-yn-1-yl]amino}-N-[(2R)-1-hydroxypropan-2-yl]-3-methoxybenzamide]	+ (+ = 0 μM ≤ SC150 < 0.05 μM)
CNS(=O)(=O)c1ccc(NCC#Cc2cc3c(N[C@H]4CC[C@H](N5CC6(CCOCC6)C5)CC4)cccc3n2CC(F)(F)F)c(OC)c1 [Compound 327A, 4-((3-(4-(((1R,4R)-4-(7-oxa-2-azaspiro[3.5]nonan-2-yl)cyclohexyl)amino)-1-(2,2,2-trifluoroethyl)-1H-indol-2-yl)prop-2-yn-1-yl)amino)-3-methoxy-N-methyl-benzenesulfonamide]	+ (+ = 0 μM ≤ SC150 < 0.05 μM)
CNS(=O)(=O)c1ccc(NCC#Cc2cc3c(NC4CCN(C)CC4)cccc3n2CC(F)(F)F)c(OC)c1 [Compound 484A, 3-methoxy-N-methyl-4-[(3-{4-[(1-methylpiperidin-4-yl)amino]-1-(2,2,2-trifluoroethyl)-1H-indol-2-yl}prop-2-yn-1-yl)amino]benzene-1-sulfonamide]	+ (+ = 0 μM ≤ SC150 < 0.05 μM)
COc1cc(C(=O)NCCS(C)(=O)=O)ccc1NCC#Cc1cc2c(N[C@@H]3CCN(C)C[C@@H]3F)cccc2n1CC(F)(F)F [Compound 969A, 4-{[3-(4-{[(3S,4R)-3-fluoro-1-methylpiperidin-4-yl]amino}-1-(2,2,2-trifluoroethyl)-1H-indol-2-yl)prop-2-yn-1-yl]amino}-N-(2-methanesulfonylethyl)-3-methoxybenzamide]	+ (+ = 0 μM ≤ SC150 < 0.05 μM)
CNC(=O)c1ccc(NCC#Cc2cc3c(N[C@H]4CC[C@@H](N5CC6(COC6)C5)CC4)cccc3n2CC(F)(F)F)c(OCC#N)c1 [Compound 243A, 3-(cyanomethoxy)-N-methyl-4-{[3-(4-{[(1S,4S)-4-{2-oxa-6-azaspiro[3.3]heptan-6-yl}cyclohexyl]amino}-1-(2,2,2-trifluoroethyl)-1H-indol-2-yl)prop-2-yn-1-yl]amino}benzamide]	+ (+ = 0 μM ≤ SC150 < 0.05 μM)
CCC(=O)OCC(O)CN1CCC(Nc2cccc3c2cc(C#CCNc2ccc(S(C)(=O)=O)cc2OC)n3CC(F)(F)F)CC1 (stereo not shown) [Compound 594A]	+ (+ = 0 μM ≤ SC150 < 0.05 μM)
COCC(O)CN1CCCC(Nc2cccc3c2cc(C#CCNc2ccc(S(C)(=O)=O)cc2OC)n3CC(F)(F)F)C1 (stereo not shown) [Compound 695A, 1-{3-[(2-{3-[(4-methanesulfonyl-2-methoxyphenyl)amino]prop-1-yn-1-yl}-1-(2,2,2-trifluoroethyl)-1H-indol-4-yl)amino]piperidin-1-yl}-3-methoxypropan-2-ol]	+ (+ = 0 μM ≤ SC150 < 0.05 μM)
COc1cc(S(=O)(=O)N2CCOCC2)ccc1NCC#Cc1cc2c(NC3CCN(C)CC3)cccc2n1CC(F)(F)F [Compound 480A, 2-(3-{[2-methoxy-4-(morpholine-4-sulfonyl)phenyl]amino}prop-1-yn-1-yl)-N-(1-methylpiperidin-4-yl)-1-(2,2,2-trifluoroethyl)-1H-indol-4-amine]	+ (+ = 0 μM ≤ SC150 < 0.05 μM)
